Results taken from US10183039B2, “Methods for the production of collagen IV” (Vanderbilt University, priority 2013, dated 2019).

Columns and labels:
[1] = increased salt concentrations (Fairbanks and Burch, 1970); cited from earlier work
peroxidasin = target: T1, peroxidasin (Mus musculus, UniProt Q3UQ28); experiment: In vitro basement membrane (uncrosslinked PFHR-9 matrix) reaction with halides and H2O2; type: biochemical
T1 construct: Cultured murine PFHR9 cells synthesize collagen IV networks that contain sulfilimine crosslinks due to the activity of PXDN; endogenous in cells; host or cells: PFHR-9 cells (isolated matrix from KI-treated culture)
T1 sequence (Q3UQ28 24-1475): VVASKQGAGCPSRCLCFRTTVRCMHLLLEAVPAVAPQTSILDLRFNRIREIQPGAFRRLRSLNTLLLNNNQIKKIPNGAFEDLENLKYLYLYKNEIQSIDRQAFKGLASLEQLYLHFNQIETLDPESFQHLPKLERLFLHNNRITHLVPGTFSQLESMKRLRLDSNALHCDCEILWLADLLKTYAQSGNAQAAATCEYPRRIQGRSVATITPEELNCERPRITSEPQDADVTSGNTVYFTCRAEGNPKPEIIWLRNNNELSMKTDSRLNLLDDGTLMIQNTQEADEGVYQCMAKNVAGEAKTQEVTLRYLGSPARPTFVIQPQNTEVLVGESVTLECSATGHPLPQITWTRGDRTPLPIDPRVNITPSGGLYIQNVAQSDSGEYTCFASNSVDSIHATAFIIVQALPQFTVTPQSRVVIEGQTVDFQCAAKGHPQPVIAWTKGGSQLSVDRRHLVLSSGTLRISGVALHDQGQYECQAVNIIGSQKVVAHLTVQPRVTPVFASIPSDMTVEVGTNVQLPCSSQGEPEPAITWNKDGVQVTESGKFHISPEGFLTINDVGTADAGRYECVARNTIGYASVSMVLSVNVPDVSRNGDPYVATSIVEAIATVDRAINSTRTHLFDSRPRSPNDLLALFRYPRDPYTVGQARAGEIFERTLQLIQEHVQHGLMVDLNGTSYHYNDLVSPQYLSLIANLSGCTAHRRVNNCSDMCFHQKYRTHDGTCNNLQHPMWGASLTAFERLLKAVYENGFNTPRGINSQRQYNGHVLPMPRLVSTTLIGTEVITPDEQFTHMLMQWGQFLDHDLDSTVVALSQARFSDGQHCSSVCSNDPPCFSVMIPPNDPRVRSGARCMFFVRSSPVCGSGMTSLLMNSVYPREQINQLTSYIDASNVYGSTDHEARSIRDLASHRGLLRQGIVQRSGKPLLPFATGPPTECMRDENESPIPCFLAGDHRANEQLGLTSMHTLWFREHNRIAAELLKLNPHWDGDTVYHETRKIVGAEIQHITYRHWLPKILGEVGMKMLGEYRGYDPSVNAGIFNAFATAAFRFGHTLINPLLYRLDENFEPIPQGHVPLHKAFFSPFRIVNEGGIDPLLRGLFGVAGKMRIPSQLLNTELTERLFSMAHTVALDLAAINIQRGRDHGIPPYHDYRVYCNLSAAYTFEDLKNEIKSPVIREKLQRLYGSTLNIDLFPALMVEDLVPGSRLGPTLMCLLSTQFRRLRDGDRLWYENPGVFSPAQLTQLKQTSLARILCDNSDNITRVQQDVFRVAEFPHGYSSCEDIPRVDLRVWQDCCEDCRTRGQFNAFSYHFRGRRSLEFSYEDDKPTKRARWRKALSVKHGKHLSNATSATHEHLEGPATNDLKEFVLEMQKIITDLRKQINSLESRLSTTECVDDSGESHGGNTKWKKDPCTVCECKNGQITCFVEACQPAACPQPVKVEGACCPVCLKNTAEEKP
Method: (FIG. 8A) Matrix pellets isolated from KI-treated PFHR9 cell culture were extensively washed into 10 mM phosphate buffer (pH 7.4) supplemented with 100 mM KF to maintain ionic strength. Potassium salts of Cl— or Br— were added in indicated amounts. 1 hr reactions at 37° C. were initiated by addition of H2O2 to 1 mM and stopped by freezing at −20° C. Coomassie blue-stained gels after collagenase digestion of the samples and SDS-PAGE (FIG. 8B) Schematic of Br-Free chloride salt purification apparatus and setup. […] Reagent KCl was commercially obtained and unaltered prior to analysis. 100 mM solutions were made with 18MΩ deionized water. (FIG. 8C) Coomassie blue stained gel of collagenase digested PFHR-9 matrix reaction assay. Reaction buffered contained 10 mM phosphate buffer (pH 7.4), 100 mM Br-Free or Commercially obtained reagent grade KCl, as well as 1 mM H2O2 and 200 μM PHG where appropriate. (FIG. 8D) SDS-PAGE and coomassie blue stain of hPXDN (27.25 nM) and NC1 domain (1.3 μM) reaction and subsequent densiometric quantitation of S═N bond formation stiochiometry in response to NaBr addition. hPXDN and PFHR-9 NC1 domain were prepared and purified as described (5), except with all buffers for all purification steps (dialysis, chromatography, gradient ultracentrifugation) made with Br-Free chloride salts. Reactions were run for 10 minutes at 37° C. with 10 μM H2O2 as the terminal oxidant. Dose-response curve run in the presence of 1× Br-Free PBS. Reactions were quenched with 0.2 mg/ml Catalase, 20 mM Methionine, and 1 mM PHG. EC50 value±95% C.I. from two independent experiments with each data point plotted and fit.
Uncrosslinked PFHR9 matrix was extensively washed into 10 mM phosphate buffer (pH 7.4) that was supplemented with 100 mM KF to maintain ionic strength. One hour reactions at 37° C. were initiated by addition of H2O2 to 1 mM and stopped by freezing at −20° C. […] Samples were digested with collagenase at 37° C. overnight and visualized by SDS-PAGE using 12% gels under non-reducing conditions with Coomassie staining.
PFHR-9 cells treated with potassium iodide (1-10 mM) to eliminate NC1 hexamer crosslinks were used for basement membrane isolation. To test halide dependency, the inventors established halide-free conditions by washing extensively (at least five times) with 10 mM sodium phosphate pH 7.4. To try to extract or inactivate endogenous basement membrane peroxidase activity, the inventors extracted the matrix preparation twice with 2M guanidine-Cl, 50 mM Tris-Cl pH 7.5 and 10 mM EDTA-Na pH 8 followed by extensive washing with 1×PBS. Basement membrane was resuspended in the desired buffer with or without cofactors and inhibitors to examine in vitro NC1 crosslinking under various conditions. Basement membranes were collagenase solubilized to delineate collagen IV NC1 sulfilimine crosslink formation with SDS-PAGE and Coomassie blue staining membrane was isolated, washed extensively and resuspended in 1×PBS. Azide (0-10 mM) and 1 mM H2O2 were added and allowed to react for 1 h at 37° C. The matrix was pelleted, washed extensively with 1×PBS and solubilized with 1×PBS plus 2% (w/v) SDS. Solubilized proteins were reacted with 100 μM Tris[(1-benzyl-1H-1,2,3-triazol-4-yl)methyl]amine (Anaspec), 1 mM Tris(2-carboxyethyl)phosphine hydrochloride (ThermoFisher Pierce), 1 mM cupric sulfate and 100 μM biotin alkyne (PEG4 carboxamide-propargyl biotin; Life Technologies) for 1 h at 37° C. Click chemistry reactions were quenched with 1 mM 3′-azido-3′-deoxythymidine (Sigma). For avidin-HRP detection, samples were electrophoresed under reducing conditions, transferred to nitrocellulose membranes and probed with streptavidin-HRP according to manufacturer instructions (ThermoFisher Pierce). To isolate biotinylated proteins, the inventors precipitated click reaction products with two volumes of cold acetone to remove reactants, washed them with 70% (v/v) acetone and then resolubilized them in 1×PBS plus 2% SDS.

Cl [chloride]
half-life in the fly [1]: ~5 h | halide concentration permitting enzymatic crosslinking within purified matrix (peroxidasin): 100 mM | S═N bond formation in isolated matrix (peroxidasin; 10 mM phosphate pH 7.4, 100 mM KF, 1 mM H2O2, 1 h at 37° C.): remained inactive until 100 mM | dimer formation with bromide-free chloride as halide source (peroxidasin; 100 mM Br-free chloride salt, 1 mM H2O2, isolated PFHR-9 matrix): insufficient for the reaction | halide concentration at which crosslinked dimeric subunits formed (peroxidasin; H2O2 added to uncrosslinked basement membrane without other halides (FIG. 3B)): ~100 mM
